Earlier results, collected in patent US20150150814A1, “STABLE ORAL PHARMACEUTICAL COMPOSITION OF SOLIFENACIN” (RANBAXY LABORATORIES LIMITED, priority 2013, published 2015).

Details: water at room temperature

Structure (SMILES): O=C(O[C@H]1CN2CCC1CC2)N1CCc2ccccc2[C@@H]1c1ccccc1 [Solifenacin succinate, (1S)-(3R)-1-azabicyclo [2.2.2] oct-3-yl3,4-dihydro-1-phenyl-2(1H)iso-quinolinecarboxylate]
- solubility in water: freely soluble
